# Data: ChEMBL document CHEMBL5247642, “Structural Optimization of Fibroblast Growth Factor Receptor Inhibitors for Treating Solid Tumors” (J Med Chem, 2023)
# Calls of active or inactive are those of the source. The calls are words filed in the database; no cut-off is given here.
# What was measured:
# [1] = Half life in CD-1 mouse at 1 mg/kg, iv measured after 24 hrs by LC-MS/MS analysis; type: ADME, organism-based; conditions: in vivo
# ASPC1 = assay: Antiproliferative activity against human ASPC1 cells assessed as reduction in cell viability measured after 72 hrs; type: functional, cell-based; conditions: ASPC1, 72 h
# [2] = molecular target: Fibroblast growth factor receptor 2 (Homo sapiens, UniProt P21802, N549H); assay: Inhibition of human recombinant FGFR2 N549H mutant (456 to 770 residues) using GGEEEEYFELVKK as substrate incubated for 40 mins presence of [gamma-33P]-ATP by radiometric based scintillation counter assay
# NCI-H716 [3] = assay: Antitumor activity against human NCI-H716 cells xenografted in nude mouse assessed as tumor growth inhibition at 200 mg/kg, po administered once daily for 18 days by microcaliper analysis relative to control; type: functional; design: scale not given: the % may be the effect or the level left; conditions: time 18 day
# [4] = molecular target: Fibroblast growth factor receptor 2 (Homo sapiens, UniProt P21802, V564F); assay: Inhibition of FGFR2 V564F mutant (unknown origin)
# NCI-H226 = assay: Antiproliferative activity against human NCI-H226 cells assessed as reduction in cell viability measured after 72 hrs; type: functional, cell-based; conditions: NCI-H226, 72 h
# BaF3 = assay: Antiproliferative activity against mouse BaF3 cells assessed as reduction in cell viability measured after 72 hrs; type: functional, cell-based; conditions: BaF3, 72 h
# NCI-H716 [5] = assay: Antiproliferative activity against human NCI-H716 cells expressing FGFR2 assessed as reduction in cell viability measured after 72 hrs; type: functional, cell-based; conditions: NCI-H716, 72 h
# [6] = MRT in CD-1 mouse at 1 mg/kg, iv measured after 24 hrs by LC-MS/MS analysis; type: ADME, organism-based; conditions: in vivo
# [7] = molecular target: T1, Fibroblast growth factor receptor 1 (Homo sapiens, UniProt P11362); conditions: dose 10.0 nM, time 60.0 min
# NCI-H2286 = assay: Antiproliferative activity against human NCI-H2286 cells assessed as reduction in cell viability measured after 72 hrs; type: functional, cell-based; conditions: NCI-H2286, 72 h
# [8] = Stability in rat whole blood assessed as parent compound remaining measured upto 5 hrs by LC-MS/MS analysis; type: ADME, tissue-based
# [9] = molecular target: T2, Fibroblast growth factor receptor (Homo sapiens) (UniProt P22607+P11362+P22455+P21802); assay: Inhibition of FGFR signalling in human SNU-16 assessed as inhibition of pErk phosphorylation at 0.1 nM incubated for 2 hrs by Western blot analysis; type: cell-based
# HCC78 = assay: Antiproliferative activity against human HCC78 cells assessed as reduction in cell viability measured after 72 hrs; type: functional, cell-based; conditions: HCC78, 72 h
# [10] = Tmax in CD-1 mouse at 3 mg/kg, po measured after 24 hrs by LC-MS/MS analysis; type: ADME, organism-based; conditions: in vivo
# [11] = molecular target: Fibroblast growth factor receptor 3 (Homo sapiens, UniProt P22607, V555M); assay: Inhibition of FGFR3 V555M mutant (unknown origin)
# NCI-H727 = assay: Antiproliferative activity against human NCI-H727 cells assessed as reduction in cell viability measured after 72 hrs; type: functional, cell-based; conditions: NCI-H727, 72 h
# [12] = Stability in rat whole blood assessed as parent compound remaining measured after 2 hrs by LC-MS/MS analysis; type: ADME, tissue-based; conditions: read-out: Stability
# SU.86.86 = assay: Antiproliferative activity against human SU-86-86 cells assessed as reduction in cell viability measured after 72 hrs; type: functional, cell-based; conditions: SU.86.86, 72 h
# [13] = molecular target: Fibroblast growth factor receptor 2 (Homo sapiens, UniProt P21802); assay: Inhibition of FGFR2 (unknown origin) using Poly (Glu,Tyr) 4:1 as substrate incubated for 60 mins in presence of ATP by ELISA analysis
# [14] = GSH reactivity in PBS buffer assessed as percentage peak area ratio incubated for 24 hrs by LC-MS/MS analysis; type: physicochemical
# [15] = molecular target: Fibroblast growth factor receptor 4 (Homo sapiens, UniProt P22455); assay: Inhibition of FGFR4 (unknown origin)
# [16] = molecular target: T1, Fibroblast growth factor receptor 1; conditions: dose 1.0 nM, time 60.0 min
# [17] = molecular target: T2, Fibroblast growth factor receptor (Homo sapiens); assay: Inhibition of FGFR signalling in human SNU-16 assessed as inhibition of PLCgamma phosphorylation at 0.1 nM incubated for 2 hrs by Western blot analysis; type: cell-based
# NCI-H1792 = assay: Antiproliferative activity against human NCI-H1792 cells assessed as reduction in cell viability measured after 72 hrs; type: functional, cell-based; conditions: NCI-H1792, 72 h
# [18] = molecular target: Fibroblast growth factor receptor 3 (Homo sapiens, UniProt P22607); assay: Inhibition of FGFR3 (unknown origin) using Poly (Glu,Tyr) 4:1 as substrate incubated for 60 mins in presence of ATP by ELISA analysis
# [19] = molecular target: T1, Fibroblast growth factor receptor 1; conditions: dose 100.0 nM, time 60.0 min
# SNU-16 = assay: Antitumor activity against human SNU-16 cells xenografted in nude mouse assessed as tumor growth inhibition at 200 mg/kg, po administered once daily for 21 days by microcaliper analysis relative to control; type: functional; design: scale not given: the % may be the effect or the level left; conditions: time 21 day
# [20] = Cmax in CD-1 mouse at 3 mg/kg, po measured after 24 hrs by LC-MS/MS analysis; type: ADME, organism-based; design: time 24 hrs, dose 3 mg/kg, route po; conditions: in vivo
# T1 sequence (P11362 22-822 limits assumed): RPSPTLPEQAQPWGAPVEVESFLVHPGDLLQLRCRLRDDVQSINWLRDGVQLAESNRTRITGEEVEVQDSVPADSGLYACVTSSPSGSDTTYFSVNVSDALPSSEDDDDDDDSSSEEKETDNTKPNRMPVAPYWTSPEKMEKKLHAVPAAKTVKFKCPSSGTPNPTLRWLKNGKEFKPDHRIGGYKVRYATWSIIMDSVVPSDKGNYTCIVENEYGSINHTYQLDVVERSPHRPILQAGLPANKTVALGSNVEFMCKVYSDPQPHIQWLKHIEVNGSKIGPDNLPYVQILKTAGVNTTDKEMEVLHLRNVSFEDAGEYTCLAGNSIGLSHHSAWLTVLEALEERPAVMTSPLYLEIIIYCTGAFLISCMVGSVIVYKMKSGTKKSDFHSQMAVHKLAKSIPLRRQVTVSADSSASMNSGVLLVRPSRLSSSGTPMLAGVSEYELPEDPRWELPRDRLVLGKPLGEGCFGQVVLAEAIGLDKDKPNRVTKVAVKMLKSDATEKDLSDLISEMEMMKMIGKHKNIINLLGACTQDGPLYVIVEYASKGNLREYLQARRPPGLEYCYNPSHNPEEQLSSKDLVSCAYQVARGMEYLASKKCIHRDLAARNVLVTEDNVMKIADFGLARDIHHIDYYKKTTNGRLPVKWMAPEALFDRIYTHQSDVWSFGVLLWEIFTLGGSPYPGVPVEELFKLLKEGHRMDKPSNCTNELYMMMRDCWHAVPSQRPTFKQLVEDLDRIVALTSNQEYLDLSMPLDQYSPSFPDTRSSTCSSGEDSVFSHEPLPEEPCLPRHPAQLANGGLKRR
# T2 sequence (P11362 whole entry, looked up): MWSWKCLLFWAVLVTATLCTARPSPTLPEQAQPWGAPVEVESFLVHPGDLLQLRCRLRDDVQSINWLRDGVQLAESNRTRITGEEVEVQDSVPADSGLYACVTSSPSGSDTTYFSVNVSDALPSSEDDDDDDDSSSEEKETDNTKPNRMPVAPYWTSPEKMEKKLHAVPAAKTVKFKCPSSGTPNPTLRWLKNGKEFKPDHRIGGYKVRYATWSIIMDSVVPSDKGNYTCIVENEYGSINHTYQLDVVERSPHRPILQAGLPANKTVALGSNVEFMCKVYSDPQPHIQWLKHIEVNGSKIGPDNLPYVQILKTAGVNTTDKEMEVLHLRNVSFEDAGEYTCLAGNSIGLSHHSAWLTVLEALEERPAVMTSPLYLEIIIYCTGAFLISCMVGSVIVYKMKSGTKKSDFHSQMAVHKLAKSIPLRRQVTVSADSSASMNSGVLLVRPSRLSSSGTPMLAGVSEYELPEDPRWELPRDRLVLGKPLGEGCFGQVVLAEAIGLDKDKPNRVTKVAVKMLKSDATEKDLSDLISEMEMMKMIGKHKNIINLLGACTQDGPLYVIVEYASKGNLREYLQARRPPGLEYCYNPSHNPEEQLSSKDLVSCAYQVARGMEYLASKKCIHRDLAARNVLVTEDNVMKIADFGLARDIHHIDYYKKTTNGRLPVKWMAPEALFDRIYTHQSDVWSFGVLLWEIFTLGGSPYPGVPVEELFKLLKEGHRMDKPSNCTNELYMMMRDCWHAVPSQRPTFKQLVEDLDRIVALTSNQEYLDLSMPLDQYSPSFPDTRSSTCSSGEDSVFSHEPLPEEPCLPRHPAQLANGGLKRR
# T2 sequence (P21802 whole entry, looked up): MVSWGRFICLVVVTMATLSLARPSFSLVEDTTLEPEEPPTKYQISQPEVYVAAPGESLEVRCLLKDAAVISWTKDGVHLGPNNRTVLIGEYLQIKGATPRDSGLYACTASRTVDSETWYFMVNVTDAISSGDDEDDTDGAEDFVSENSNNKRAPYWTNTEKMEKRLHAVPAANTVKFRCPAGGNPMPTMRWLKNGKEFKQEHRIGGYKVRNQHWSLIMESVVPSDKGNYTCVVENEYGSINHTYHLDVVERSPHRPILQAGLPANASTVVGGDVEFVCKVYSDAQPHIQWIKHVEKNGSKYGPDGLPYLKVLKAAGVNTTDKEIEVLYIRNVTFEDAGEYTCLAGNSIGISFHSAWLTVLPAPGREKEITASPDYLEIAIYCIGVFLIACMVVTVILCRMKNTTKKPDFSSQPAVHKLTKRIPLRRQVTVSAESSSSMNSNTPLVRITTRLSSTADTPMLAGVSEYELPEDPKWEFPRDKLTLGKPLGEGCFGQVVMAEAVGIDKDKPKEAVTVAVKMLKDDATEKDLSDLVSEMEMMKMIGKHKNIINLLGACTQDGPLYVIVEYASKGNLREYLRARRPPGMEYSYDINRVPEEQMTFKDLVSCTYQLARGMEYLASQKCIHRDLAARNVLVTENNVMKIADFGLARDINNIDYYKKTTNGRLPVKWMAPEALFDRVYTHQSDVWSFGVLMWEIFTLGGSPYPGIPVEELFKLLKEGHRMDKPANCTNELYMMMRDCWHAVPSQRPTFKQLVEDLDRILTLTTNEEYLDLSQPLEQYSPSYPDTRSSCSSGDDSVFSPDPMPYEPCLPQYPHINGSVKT
# T2 sequence (P22455 whole entry, looked up): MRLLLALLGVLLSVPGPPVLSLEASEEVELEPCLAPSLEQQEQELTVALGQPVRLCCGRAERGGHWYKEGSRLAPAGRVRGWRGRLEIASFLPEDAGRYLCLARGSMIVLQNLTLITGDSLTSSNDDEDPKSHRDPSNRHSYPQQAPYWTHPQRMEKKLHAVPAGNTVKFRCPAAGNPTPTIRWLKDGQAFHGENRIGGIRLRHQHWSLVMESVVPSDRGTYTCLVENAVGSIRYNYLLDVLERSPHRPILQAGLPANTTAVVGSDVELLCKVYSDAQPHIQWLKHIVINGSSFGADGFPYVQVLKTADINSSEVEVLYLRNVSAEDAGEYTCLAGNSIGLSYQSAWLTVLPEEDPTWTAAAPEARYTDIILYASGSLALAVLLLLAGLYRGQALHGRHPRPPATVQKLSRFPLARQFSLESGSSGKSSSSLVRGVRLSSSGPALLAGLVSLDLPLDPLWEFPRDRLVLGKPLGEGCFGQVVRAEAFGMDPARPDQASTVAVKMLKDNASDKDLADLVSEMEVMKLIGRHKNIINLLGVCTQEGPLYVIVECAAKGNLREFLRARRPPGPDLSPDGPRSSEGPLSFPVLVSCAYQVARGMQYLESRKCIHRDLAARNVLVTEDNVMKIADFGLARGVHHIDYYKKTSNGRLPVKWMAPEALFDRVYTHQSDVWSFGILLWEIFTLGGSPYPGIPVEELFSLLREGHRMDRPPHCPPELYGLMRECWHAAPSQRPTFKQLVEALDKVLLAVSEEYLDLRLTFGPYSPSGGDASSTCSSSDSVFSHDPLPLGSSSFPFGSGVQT
# T2 sequence (P22607 whole entry, looked up): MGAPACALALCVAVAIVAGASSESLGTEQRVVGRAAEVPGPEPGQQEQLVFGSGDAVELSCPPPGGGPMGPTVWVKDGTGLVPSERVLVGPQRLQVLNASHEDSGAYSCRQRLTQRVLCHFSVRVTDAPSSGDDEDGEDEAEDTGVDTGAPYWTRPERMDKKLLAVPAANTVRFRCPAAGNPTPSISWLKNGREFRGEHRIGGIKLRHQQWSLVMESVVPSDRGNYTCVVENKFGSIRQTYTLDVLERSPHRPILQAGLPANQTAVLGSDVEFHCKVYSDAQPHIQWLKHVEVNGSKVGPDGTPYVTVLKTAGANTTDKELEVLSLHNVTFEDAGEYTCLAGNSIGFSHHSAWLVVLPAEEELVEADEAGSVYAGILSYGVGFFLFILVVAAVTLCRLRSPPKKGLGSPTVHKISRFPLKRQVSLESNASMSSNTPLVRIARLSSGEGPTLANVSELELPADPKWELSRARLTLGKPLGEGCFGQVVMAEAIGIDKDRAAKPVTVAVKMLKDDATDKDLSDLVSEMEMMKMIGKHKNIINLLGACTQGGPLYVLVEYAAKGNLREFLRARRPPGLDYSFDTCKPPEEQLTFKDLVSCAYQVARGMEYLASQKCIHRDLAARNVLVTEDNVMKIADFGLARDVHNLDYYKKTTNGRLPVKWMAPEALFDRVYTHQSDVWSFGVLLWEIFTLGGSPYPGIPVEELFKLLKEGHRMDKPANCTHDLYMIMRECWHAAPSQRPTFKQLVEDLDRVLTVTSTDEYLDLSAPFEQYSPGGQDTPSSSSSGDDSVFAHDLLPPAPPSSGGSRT
# Sequence of Fibroblast growth factor receptor 4 (P22455 whole entry): as the sequence (P22455 whole entry, looked up) above
# Sequence of Fibroblast growth factor receptor 2 (Homo sapiens, UniProt P21802, N549H) (P21802 22-821 N549H limits assumed): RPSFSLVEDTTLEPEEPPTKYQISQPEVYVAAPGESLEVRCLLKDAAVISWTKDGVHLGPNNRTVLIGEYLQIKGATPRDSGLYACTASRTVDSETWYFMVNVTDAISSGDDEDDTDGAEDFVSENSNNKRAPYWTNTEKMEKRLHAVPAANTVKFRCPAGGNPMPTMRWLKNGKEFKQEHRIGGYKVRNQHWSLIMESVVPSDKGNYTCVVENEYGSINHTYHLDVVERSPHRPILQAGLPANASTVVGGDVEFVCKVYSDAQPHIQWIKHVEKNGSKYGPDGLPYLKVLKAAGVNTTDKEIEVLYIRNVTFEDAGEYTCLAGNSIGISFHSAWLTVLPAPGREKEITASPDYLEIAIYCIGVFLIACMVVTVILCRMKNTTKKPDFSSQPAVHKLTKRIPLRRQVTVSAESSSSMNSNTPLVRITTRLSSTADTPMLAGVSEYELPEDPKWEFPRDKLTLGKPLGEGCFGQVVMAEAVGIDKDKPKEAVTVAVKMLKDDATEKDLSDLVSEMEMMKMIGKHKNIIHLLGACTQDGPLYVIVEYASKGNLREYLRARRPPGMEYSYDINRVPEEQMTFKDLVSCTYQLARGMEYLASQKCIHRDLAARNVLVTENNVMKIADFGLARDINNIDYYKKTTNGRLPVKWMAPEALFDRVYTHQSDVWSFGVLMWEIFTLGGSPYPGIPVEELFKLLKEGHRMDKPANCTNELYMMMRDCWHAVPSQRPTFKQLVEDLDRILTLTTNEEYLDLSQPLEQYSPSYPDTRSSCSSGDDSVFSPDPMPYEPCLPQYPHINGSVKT
# Sequence of Fibroblast growth factor receptor 3 (Homo sapiens, UniProt P22607) (P22607 whole entry): as the sequence (P22607 whole entry, looked up) above
# Sequence of Fibroblast growth factor receptor 2 (Homo sapiens, UniProt P21802, V564F) (P21802 22-821 V564F limits assumed): as the sequence (P21802 22-821 N549H limits assumed) above, with H528N, V543F counted along it
# Sequence of Fibroblast growth factor receptor 2 (Homo sapiens, UniProt P21802) (P21802 whole entry): as the sequence (P21802 whole entry, looked up) above
compound,measurement,setting,value
C=CC(=O)N1CCCC(n2nc3c(=O)[nH]nc(N)c3c2-c2oc3ccc(C)cc3c2C)C1 (centres undefined),half-life,[1],37.5 min
same,IC50,ASPC1,> 10 µM
same,IC50,[2],0.016 µM
same,Activity,NCI-H716 [3],83.5%
same,IC50,[4],2.86 µM
same,IC50,NCI-H226,> 10 µM
same,IC50,BaF3,> 10 µM
same,IC50,NCI-H716 [5],0.0032 µM
same,MRT,[6],15.1 min
same,inhibition,[7],80.9%
same,IC50,NCI-H2286,> 10 µM
same,Stability,[8],Stable
same,inhibition,[9],Active
same,IC50,HCC78,> 10 µM
same,Tmax,[10],15 min
same,IC50,[11],2 µM
same,IC50,NCI-H727,> 10 µM
same,remaining at 2 h,[12],> 40%
same,IC50,SU.86.86,> 10 µM
same,IC50,[13],0.0136 µM
same,Activity,[14],65%
same,IC50,[15],0.0061 µM
same,inhibition,[16],37.6%
same,inhibition,[17],Active
same,IC50,NCI-H1792,> 10 µM
same,IC50,[18],0.0526 µM
same,inhibition,[19],102%
same,Activity,SNU-16,68.4%
same,Cmax,[20],174 ng/mL
